The target of data set [1] is T1, CYP1A2 (Homo sapiens, UniProt P05177).
T1 sequence (P05177 1-516): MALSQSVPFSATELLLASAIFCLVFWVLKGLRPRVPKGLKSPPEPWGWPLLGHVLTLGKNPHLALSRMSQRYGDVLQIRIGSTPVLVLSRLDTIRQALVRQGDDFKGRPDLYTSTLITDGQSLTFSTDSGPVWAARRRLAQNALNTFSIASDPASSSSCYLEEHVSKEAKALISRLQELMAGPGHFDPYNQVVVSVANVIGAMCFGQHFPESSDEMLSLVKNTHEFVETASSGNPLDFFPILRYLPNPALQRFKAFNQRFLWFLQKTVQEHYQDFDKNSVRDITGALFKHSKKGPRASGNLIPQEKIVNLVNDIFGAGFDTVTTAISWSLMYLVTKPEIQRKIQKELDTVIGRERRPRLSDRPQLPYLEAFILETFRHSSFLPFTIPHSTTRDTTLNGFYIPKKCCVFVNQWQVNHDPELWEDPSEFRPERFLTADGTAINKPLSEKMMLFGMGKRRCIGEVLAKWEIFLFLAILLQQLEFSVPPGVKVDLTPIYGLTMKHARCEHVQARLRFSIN
As to the kind of experiment: clinical DDI prediction, static (IVIVE) and dynamic (PBPK) models, CYP1A2. The source says: (§1) The Ki input values were estimated from the ratio IC50/2. Since the IC50 experiments were designed considering the substrate concentration equal to Km, the simplification of Ki as IC50/2 was considered for a competitive inhibition reaction.
(§2) The following Equation (4) was considered for the potential DDI evaluation:(4) AUCR=AUCwith inhibitor/AUCwithout inhibitor where AUCR is the area under the curve ratio, AUCwith inhibitor is AUC in the presence of the inhibitor, and AUCwithout inhibitor is AUC in the absence of the inhibitor.

Details of data set [2]: method as in Antunes et al. [14]. The note with it: ref Antunes et al. [14], cited from earlier work.
Data set [3] deals with tinea cruris. The note with it: topical treatment of tinea cruris; ref [4]; cited from earlier work.
The target in data set [4] is T2, CYP2C9 (Homo sapiens, UniProt P11712). The following applies: microsomes. Here is the method:
(§3) The incubation conditions employed for each CYP450 isoform were performed, as previously described.
(§4) Buffer solution (0.1 mol/L aqueous phosphate buffer, pH 7.4, 69 µL), NADPH-regenerating solutions (10 µL solution A: 26 mmol/L NADP+, 66 mmol/L glucose-6-phosphate, and 66 mmol/L MgCl2; 2 µL solution B: 40 U/mL glucose-6-phosphate dehydrogenase in 5 mmol/L sodium citrate), and deionized water (69 µL) were added, in a total volume of 150 μL. The tubes were vortex-mixed and preincubated with continuous gentle shaking for 5 min at 37 °C in a shaking water bath. Reactions were initiated by the addition of 50 µL of HLM solution in the tubes which were gently mixed by hand and incubated with continuous gentle shaking at 37 °C. Aliquots of 200 µL ice-cold solvent (Table 1) containing IS (1 µg/mL) were added. […] The supernatants were transferred to glass autosampler vials and submitted to LC-MS/MS analysis (5 µL injection volume) to monitor the substrate metabolite formation.

In data set [5] the target is CYP2C19 (Homo sapiens, UniProt P33261). The following applies: microsomes. The procedure: as §3, §4
Sequence of CYP2C19 (P33261 whole entry): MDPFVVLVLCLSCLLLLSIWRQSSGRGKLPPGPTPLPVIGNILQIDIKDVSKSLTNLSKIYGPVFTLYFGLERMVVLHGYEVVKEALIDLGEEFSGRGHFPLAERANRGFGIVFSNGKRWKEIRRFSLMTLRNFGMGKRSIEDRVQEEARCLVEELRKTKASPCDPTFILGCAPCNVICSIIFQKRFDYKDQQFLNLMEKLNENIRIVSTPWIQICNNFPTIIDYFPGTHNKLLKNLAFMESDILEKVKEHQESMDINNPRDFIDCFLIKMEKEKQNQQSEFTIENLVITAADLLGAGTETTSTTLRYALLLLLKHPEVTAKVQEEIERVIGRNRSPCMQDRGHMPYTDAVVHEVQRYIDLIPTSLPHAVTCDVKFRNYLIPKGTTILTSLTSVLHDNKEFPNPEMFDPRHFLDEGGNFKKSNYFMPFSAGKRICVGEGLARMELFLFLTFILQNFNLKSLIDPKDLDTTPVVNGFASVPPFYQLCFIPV
The target in data set [6] is T3, CYP2D6 (Homo sapiens, UniProt P10635). The note with it: microsomes. The procedure: as §3, §4
T3 sequence (P10635 whole entry): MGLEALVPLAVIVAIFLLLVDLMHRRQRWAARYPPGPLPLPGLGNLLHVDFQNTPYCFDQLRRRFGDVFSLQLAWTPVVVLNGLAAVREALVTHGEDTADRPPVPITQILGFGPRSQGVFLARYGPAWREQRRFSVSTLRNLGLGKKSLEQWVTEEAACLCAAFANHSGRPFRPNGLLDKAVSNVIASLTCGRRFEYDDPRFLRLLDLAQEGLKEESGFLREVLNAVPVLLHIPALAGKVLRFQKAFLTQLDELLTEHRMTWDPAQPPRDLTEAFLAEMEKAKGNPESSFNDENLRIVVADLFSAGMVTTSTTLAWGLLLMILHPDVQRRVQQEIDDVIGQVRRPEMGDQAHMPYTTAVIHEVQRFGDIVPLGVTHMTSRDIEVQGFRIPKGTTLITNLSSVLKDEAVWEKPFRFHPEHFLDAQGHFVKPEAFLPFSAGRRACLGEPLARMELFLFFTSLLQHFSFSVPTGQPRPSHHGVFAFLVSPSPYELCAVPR
For data set [7], the target named is T1, CYP1A2. The note with it: microsomes. The procedure:
as §3, §4

Data set [8] concerns the target T4, CYP2C8 (Homo sapiens, UniProt P10632).
T4 sequence (P10632 1-490): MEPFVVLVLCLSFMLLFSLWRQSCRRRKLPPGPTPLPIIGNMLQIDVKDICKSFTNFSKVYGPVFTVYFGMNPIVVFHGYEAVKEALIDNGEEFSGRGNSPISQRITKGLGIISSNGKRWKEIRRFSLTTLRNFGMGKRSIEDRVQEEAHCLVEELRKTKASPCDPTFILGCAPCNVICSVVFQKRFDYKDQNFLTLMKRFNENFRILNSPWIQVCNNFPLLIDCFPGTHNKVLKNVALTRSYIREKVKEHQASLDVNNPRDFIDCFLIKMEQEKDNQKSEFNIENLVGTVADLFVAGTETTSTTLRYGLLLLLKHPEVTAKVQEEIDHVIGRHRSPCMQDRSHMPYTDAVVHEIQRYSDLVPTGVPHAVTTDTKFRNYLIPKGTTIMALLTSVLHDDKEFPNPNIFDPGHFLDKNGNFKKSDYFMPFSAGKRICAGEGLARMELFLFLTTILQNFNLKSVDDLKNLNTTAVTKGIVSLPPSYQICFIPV
The following applies: microsomes. Here is the method: as §3, §4

Details of data set [9]: method as in Antunes et al. [14]. The note with it: ref Antunes et al. [14], cited from earlier work. The source holds these as a separate data set.
The target of data set [10] is T2, CYP2C9.
Description: as §1, §2

Data set [11] deals with T3, CYP2D6.
Description: as §1, §2

Data set [12] concerns the target T4, CYP2C8.
Description: as §1, §2

Results on one molecule are retold here after article PMC9861162 (Pharmaceuticals, 2022).

Each structure is given as a SMILES string. “And” between values parts separate entries of the source, which are not always exact repeats. Equal values may be shown once. Read-outs that look alike come from different tables or passages of the source.

T2 sequence (P11712 whole entry, canonical isoform): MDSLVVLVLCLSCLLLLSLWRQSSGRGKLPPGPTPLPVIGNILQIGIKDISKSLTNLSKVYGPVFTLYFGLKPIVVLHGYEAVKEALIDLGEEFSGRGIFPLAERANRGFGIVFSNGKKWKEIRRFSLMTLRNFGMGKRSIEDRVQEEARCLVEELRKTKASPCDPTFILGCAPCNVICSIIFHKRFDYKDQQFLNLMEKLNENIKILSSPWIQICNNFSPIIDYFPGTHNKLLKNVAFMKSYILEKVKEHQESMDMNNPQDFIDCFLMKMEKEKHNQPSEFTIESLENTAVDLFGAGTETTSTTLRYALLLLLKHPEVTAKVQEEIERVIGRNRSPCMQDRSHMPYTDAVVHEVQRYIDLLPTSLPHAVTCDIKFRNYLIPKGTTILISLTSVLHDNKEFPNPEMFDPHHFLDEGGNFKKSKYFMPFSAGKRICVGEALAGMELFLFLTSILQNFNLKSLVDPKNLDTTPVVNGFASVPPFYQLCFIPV

In the case of `FC(F)(F)c1ccc(COC(Cn2ccnc2)c2ccc(Cl)cc2Cl)cc1` (stereo not shown) [dapaconazole, Dapaconazole], the “DDI potential from Ki and R1 values” in data set [1] (CYP1A2) is reported as “moderate potential”; in [10], “high potential”; in data set [11], “high potential”; in data set [12], “low potential”. Also, the R1 is 1.20 in [1] (reversible inhibition, R1=1+(Imax,u/Ki,u), substrate phenacetin); 4.43 in data set [10]; 1.86 in [11]; 1.01 in data set [12]. Moreover, the “fu,inc” value was 0.94 in data set [2] (human liver microsome incubation) and 0.97 in data set [9] (dog liver microsome incubation). Moreover, the CL int. mic. is 118.5 µL/min/mg in data set [2] (human liver microsomes); 257.97 µL/min/mg and 258 µL/min/mg in data set [9] (dog liver microsomes). Also, the “efficacy compared with miconazole” value in data set [3] was “noninferior efficacy”. Moreover, the Ki in [4] amounted to 110 nM; in data set [5], 30 nM; in [6], 430 nM; in data set [7] it was 1840 nM. Besides, in data set [7], the IC50 was 3.68 µM. Further, the “in vitro reversible inhibition class from IC50” value in [8] is on record as “slightly inhibits”.
